Assay results taken from ChEMBL document CHEMBL5465560, “Selectivity Literature for EUbOPEN Chemogenomic Library” (2024).

How the values were obtained:
[1] = target: T1, Activin receptor type-1 (Homo sapiens) (UniProt Q04771); experiment: Selectivity interaction (Ambit KINOMEscan and KiNATiv profiling in Jurkat cells) EUB0000090b ACVR1; format: cell-based; details: at 1 µM
T1 sequence (whole entry): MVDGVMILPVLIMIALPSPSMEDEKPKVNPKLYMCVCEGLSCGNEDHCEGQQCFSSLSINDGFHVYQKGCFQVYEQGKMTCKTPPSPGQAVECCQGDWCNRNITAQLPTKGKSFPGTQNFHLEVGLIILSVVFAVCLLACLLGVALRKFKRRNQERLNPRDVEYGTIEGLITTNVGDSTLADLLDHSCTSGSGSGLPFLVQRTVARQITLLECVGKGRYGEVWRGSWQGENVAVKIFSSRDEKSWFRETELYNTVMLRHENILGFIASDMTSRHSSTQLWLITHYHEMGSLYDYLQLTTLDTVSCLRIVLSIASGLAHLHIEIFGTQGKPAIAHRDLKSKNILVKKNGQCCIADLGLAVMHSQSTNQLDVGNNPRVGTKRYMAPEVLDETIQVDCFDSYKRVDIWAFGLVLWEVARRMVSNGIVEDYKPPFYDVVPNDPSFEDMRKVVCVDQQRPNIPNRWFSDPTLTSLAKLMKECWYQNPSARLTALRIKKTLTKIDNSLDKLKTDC

[2] = target: T2, Protein kinase C zeta type (Homo sapiens) (UniProt Q05513); experiment: Selectivity interaction (ProQinase) EUB0000171b PRKCZ; details: at 1 µM
T2 sequence (whole entry): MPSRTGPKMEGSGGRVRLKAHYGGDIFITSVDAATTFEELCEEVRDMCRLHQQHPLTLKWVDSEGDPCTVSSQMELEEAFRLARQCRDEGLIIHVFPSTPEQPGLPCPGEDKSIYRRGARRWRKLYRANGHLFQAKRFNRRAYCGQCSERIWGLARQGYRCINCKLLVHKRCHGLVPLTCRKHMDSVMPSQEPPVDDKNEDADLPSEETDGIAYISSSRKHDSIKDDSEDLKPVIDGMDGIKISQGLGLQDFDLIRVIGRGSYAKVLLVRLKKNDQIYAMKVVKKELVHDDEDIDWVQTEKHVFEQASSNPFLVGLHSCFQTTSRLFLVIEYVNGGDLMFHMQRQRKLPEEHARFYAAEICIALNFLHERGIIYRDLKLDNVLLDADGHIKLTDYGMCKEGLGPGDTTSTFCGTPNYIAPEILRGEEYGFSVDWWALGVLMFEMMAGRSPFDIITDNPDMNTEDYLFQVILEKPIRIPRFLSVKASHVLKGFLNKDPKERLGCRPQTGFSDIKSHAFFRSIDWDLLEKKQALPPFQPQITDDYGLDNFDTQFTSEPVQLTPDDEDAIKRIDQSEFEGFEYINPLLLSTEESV

[3] = target: LIM domain kinase 1 (Homo sapiens) (UniProt P53667); experiment: Selectivity interaction (KinomeScan (DiscoverX)) EUB0000045b LIMK1
LIM domain kinase 1 (Homo sapiens), sequence (P53667 whole entry, looked up, the tested form may be a part): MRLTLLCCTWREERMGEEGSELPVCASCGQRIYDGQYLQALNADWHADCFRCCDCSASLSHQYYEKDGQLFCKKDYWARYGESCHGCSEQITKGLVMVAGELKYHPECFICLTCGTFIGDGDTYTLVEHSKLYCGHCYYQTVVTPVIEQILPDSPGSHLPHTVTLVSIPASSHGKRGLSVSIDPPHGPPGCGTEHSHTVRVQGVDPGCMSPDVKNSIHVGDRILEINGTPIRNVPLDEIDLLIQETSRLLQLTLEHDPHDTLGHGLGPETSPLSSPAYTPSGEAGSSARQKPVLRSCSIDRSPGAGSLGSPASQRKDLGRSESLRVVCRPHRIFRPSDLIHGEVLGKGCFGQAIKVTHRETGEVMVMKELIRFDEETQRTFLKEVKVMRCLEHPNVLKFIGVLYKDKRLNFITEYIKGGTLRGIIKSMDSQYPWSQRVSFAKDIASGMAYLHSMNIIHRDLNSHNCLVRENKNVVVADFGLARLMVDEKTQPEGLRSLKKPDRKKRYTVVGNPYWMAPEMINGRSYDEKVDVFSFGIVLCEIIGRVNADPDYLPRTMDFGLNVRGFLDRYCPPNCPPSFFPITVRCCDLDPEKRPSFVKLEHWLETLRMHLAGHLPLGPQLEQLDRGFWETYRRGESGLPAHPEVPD

[4] = target: T3, Serine/threonine-protein kinase Nek11 (Homo sapiens) (UniProt Q8NG66); experiment: Selectivity interaction (KinomeScan (DiscoverX)) EUB0001619a NEK11; details: at 1 µM
T3 sequence (whole entry): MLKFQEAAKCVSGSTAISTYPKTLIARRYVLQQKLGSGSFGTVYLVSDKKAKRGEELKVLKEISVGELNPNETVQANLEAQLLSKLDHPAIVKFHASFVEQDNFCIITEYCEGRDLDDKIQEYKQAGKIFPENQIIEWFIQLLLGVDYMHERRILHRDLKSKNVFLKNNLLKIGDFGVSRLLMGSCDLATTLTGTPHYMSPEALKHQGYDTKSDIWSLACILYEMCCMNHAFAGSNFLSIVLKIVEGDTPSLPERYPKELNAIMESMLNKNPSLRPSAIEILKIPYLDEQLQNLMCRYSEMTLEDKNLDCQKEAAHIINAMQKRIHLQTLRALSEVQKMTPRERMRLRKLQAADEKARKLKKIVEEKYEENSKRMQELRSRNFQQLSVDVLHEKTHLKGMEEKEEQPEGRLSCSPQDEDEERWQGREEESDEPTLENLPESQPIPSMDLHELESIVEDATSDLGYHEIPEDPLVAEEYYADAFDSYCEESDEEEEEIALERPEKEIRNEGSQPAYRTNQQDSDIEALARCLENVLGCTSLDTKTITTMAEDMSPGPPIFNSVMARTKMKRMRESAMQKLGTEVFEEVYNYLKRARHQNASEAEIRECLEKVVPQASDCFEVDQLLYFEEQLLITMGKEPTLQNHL

[5] = target: T4, Serine/threonine-protein kinase BRSK1 (Homo sapiens) (UniProt Q8TDC3); experiment: Selectivity interaction (KinomeScan (DiscoverX)) EUB0001619a BRSK1; details: at 1 µM
T4 sequence (whole entry): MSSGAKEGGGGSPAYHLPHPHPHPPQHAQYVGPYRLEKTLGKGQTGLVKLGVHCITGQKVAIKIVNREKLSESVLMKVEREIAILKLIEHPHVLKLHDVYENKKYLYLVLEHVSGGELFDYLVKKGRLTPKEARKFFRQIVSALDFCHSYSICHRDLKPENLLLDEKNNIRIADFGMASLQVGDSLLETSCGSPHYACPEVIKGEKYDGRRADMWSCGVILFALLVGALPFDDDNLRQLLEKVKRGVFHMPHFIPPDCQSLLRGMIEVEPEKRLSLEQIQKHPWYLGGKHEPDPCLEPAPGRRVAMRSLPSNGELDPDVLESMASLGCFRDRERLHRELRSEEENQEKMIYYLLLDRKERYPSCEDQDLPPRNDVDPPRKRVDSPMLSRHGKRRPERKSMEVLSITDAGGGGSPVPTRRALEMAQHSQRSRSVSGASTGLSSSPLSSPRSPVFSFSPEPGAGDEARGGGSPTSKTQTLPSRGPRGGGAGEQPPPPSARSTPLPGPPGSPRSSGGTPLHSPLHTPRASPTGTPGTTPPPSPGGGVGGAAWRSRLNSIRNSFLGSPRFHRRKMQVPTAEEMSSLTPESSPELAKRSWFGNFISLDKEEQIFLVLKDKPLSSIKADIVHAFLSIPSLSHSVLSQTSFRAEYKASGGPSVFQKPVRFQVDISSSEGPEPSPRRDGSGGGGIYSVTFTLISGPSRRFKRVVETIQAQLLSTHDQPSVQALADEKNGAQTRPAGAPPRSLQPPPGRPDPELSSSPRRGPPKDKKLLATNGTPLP

[6] = target: Mitogen-activated protein kinase 9 (Homo sapiens, UniProt P45984); experiment: Selectivity interaction (KinomeScan (DiscoverX)) EUB0000618a MAPK9; details: at 10 µM
Mitogen-activated protein kinase 9, sequence (P45984 whole entry, looked up): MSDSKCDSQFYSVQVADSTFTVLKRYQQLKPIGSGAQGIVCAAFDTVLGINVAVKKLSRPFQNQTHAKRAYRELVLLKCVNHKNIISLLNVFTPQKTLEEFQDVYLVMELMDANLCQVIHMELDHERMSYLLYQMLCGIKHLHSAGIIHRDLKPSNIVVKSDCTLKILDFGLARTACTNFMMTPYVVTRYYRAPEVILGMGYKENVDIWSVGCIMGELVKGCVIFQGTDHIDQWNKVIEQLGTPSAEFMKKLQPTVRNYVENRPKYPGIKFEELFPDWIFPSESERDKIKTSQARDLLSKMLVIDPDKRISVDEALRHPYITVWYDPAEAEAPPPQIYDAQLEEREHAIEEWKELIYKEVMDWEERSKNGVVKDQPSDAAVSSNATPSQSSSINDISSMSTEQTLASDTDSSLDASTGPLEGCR

Molecule CN(C)C/C=C/C(=O)Nc1ccc(C(=O)N2CCCC(Nc3ncc(Cl)c(-c4c[nH]c5ccccc45)n3)C2)cc1 (configuration not stated) has a % of control [1] of 97%.

In the case of C=CC(=O)Nc1cccc(C(=O)Nc2ccc(Nc3cc(-c4[nH]c(SC)nc4C)ccn3)cc2)c1, the % of control [2] was 90%.

For C=CC(=O)Nc1cc(-n2c(=O)ccc3cnc4ccc(-c5ccc(NS(C)(=O)=O)cc5)cc4c32)ccc1C, the % of control ([3]; at 1 µM) was 100% and the % of control ([3]; at 10 µM) was 95%.

In the case of N#Cc1cccc(-c2c[nH]c3ncnc(N4CCOCC4)c23)c1, the % of control [4] was 100% and the % of control [5] was 100%.

O[C@H]1CC[C@H](Nc2ncc3nc(Nc4c(F)cc(F)cc4F)n([C@H]4CCOC4)c3n2)CC1 gave a % of control [6] of 0%.
